In patent US6995190B2 (Veterinary Solutions, priority 2001, dated 2006):

Experiments:
platelet cyclo-oxygenase = details: horse, cited from earlier work
[1] = system: PRRS (Porcine Respiratory and Reproductive Syndrome) Virus; test: PRRS virus outbreak in swine nursery, Ketoprofen orally; type: in vivo; details: orally for 7 days, along with the same other therapy as controls
Description: A swine client with a 10,000 head nursery was experiencing severe mortality due to a PRRS (Porcine Respiratory and Reproductive Syndrome) Virus outbreak. They had used antibiotics with only partial success and were seeing mortalities as high as 30 percent in the group. […] We also saw less chronic pigs in the treatment group 3% versus 15% in the controls.

[2] = system: horse with chronic laminitis; test: Horse with chronic laminitis, Ketoprofen in the water, acceptance and intake; type: in vivo; details: 1 mg per pound in the water for 2 weeks
swine influenza = type: in vivo, finishing hogs
[3] = 1 mg/pound for 3 days orally through the drinking water

CN=C1CCN(c2cccc(C(F)(F)F)c2)N1 [BW540C]
reductions in exudates eicosanoid concentrations (platelet cyclo-oxygenase; carrageenin tissue-cage exudate): less pronounced
duration of inhibition of platelet cyclo-oxygenase (platelet cyclo-oxygenase; oral): 24 h

CC(C(=O)O)c1cccc(C(=O)c2ccccc2)c1 (stereo not drawn) [Ketoprofen]
chronic pigs [1]: 3%
mortality [1]: 7%
pain compared with previous treatment (phenylbutazone) [2]: less painful
morbidity at the time of the outbreak (swine influenza; [3]): 10%
mortality (swine influenza; [3]): 2.1%
average time to market, less than the control group (swine influenza; 1 mg/pound for 3 days orally through the drinking water, 150 pound finishing hogs marketed at 260 pounds): 9 days
follow-up mass medication with antibiotics (swine influenza; two weeks after the outbreak): did not require any mass medication with antibiotics
